# Test: in vitro
# Details: human, hela cells, % viability
row,Compound,"viability at 28.5 h, 10 µM [%]"
1,CC(=O)Oc1ccc(-c2cccc(C(=O)NCCO)c2)cc1 [CBK263829],105
2,Cc1cccn2c(=O)c(/C=C3\SC(=S)N(Cc4ccccc4)C3=O)c(NCCCn3ccnc3)nc12 [CBK263833],102
3,COC(=O)c1c(NC(=O)CC2SCC(C(=O)OC)NC2=O)sc2c1CCCC2 (centres unmarked) [CBK263834],94.5
4,O=C(c1ccc(S(=O)(=O)N2CCCCCC2)cc1)N1CCC(CN2C(=O)c3cccc4cccc(c34)C2=O)CC1 [CBK263835],98.1
5,Cc1cccn2c(=O)c(/C=C3\SC(=S)N(C(C)c4ccccc4)C3=O)c(NCCCn3ccnc3)nc12 (centres unmarked) [CBK263836],92.9
6,Cc1nnc2nc(-c3cccc(Cl)c3Cl)[nH]n12 [CBK263845],94.2
7,N/C(=N/OC(=O)c1ccc2nsnc2c1)c1ncon1 [CBK263847],105
8,CN(C1=NS(=O)(=O)c2ccccc21)c1ccc(OC(=O)C2CC(=O)N(c3ccccc3)C2)cc1 (centres unmarked) [CBK263849],87
9,Cc1ccc(CSc2nnc(-c3ccc(NC(=O)/C=C/c4ccccc4)cc3)n2C)cc1 [CBK263850],90.4
10,Cc1ccc(C(=O)C(NC(=O)c2ccco2)Nc2cccc3ccccc23)cc1 (centres unmarked) [CBK263856],86.3
11,N=C1NS(=O)(=O)NC1c1ccc(Cl)cc1 (centres unmarked) [CBK263858],88.4
12,CN1C(=O)C(CC(=O)Nc2ccc(F)cc2)N(CCc2ccccc2)C1=S (centres unmarked) [CBK263861],118
13,O=C(O)c1cccc(-c2ccc(/C=N/NC(=O)c3sc4ccccc4c3Cl)o2)c1 [CBK263863],91
14,C(=N\n1cnnc1)/c1ccccc1OCc1cccc2ccccc12 [CBK263864],94.6
15,CCOC(=O)C1=C(C)NC(=O)NC1c1ccc(-c2ccccc2F)o1 (centres unmarked) [CBK263867],95.7
16,O=C(CC1C(=O)N(Cc2ccccc2)C(=S)N1Cc1ccccc1)Nc1ccccc1 (centres unmarked) [CBK263871],97.3
17,O=C(O)c1cc(NS(=O)(=O)c2ccc(N3CCCCC3)c([N+](=O)[O-])c2)cc(C(=O)O)c1 [CBK263876],101
18,N/C(=N\C(=O)CN1C(=O)C2CCCCC2C1=O)Nc1nc2ccccc2s1 (centres unmarked) [CBK263877],92.4
19,COc1ccccc1NCC(=O)n1nc(C)cc1C [CBK263879],97.8
20,O=C(O)COC(=O)C1C(c2ccccc2)C(C(=O)O)C1c1ccccc1 (centres unmarked) [CBK263881],85.9

row,Compound,"viability at 28.5 h, 10 µM [%]"
1,Cc1cc(/C=C2/NC(=S)NC2=O)c(C)n1-c1ccc(Sc2ccc([N+](=O)[O-])cc2)cc1 [CBK263883],109
2,Cc1ccc(NC(=O)CCC(=O)N/N=C/c2ccco2)c(C)c1 [CBK263885],96.4
3,O=C1c2ccccc2C(=O)N1CSc1nnc2c3ccccc3n(CCc3ccccc3)c2n1 [CBK263891],97.7
4,C=CCn1c2ccccc2c2nnc(SCC(=O)Nc3c(C)n(C)n(-c4ccccc4)c3=O)nc21 [CBK263892],87.6
5,COc1ccc(C(=O)Nc2ccc(N3CCOCC3)c(Cl)c2)cc1[N+](=O)[O-] [CBK263894],100
6,Cc1ccccc1C(=O)Nc1cccc(NC(=S)NC(=O)c2cccs2)c1 [CBK263895],93.1
7,O=C(CSc1nc(-c2ccccc2)cc(-c2ccccc2)n1)Nc1cccc([N+](=O)[O-])c1 [CBK263896],97.9
8,Cc1ccc2oc(-c3ccc(C)c(NC(=S)NC(=O)c4ccc([N+](=O)[O-])cc4)c3)nc2c1 [CBK263897],90.4
9,O=C(COc1ccccc1)Nc1nnc[nH]1 [CBK263898],108
10,Cn1c2ccc(Br)cc2c2nnc(SCC(=O)N3c4ccccc4Sc4ccccc43)nc21 [CBK263900],88.7
11,O=C(CC(NC(=O)c1ccccc1)c1ccccc1)Nc1cccc2ccccc12 (centres unmarked) [CBK263901],98.9
12,COc1ccc(-c2c(C(F)(F)F)oc3cc(OC(=O)c4cccc(C)c4)ccc3c2=O)cc1OC [CBK263907],99.3
13,Cc1cc(C)cc(Oc2coc3c(CN4CCOCC4)c(O)ccc3c2=O)c1 [CBK263908],89.7
14,O=C(Cc1ccc(Cl)cc1)NC(=S)Nc1ccccc1[N+](=O)[O-] [CBK263909],95.4
15,Cc1cc(C)nc(N/C(=N\C(=O)c2ccccc2)N2CCC(C(N)=O)CC2)n1 [CBK263910],99.4
16,CS(=O)(=O)N(CC(=O)N/N=C/c1ccncc1)c1ccccc1Br [CBK263911],100
17,Cc1c(NC(=O)COc2ccc([N+](=O)[O-])cc2)cccc1-c1nc2ncccc2o1 [CBK263912],105
18,COc1ccc(-c2nnc3[nH]c(=O)n(C)c(=O)c3n2)cc1OC [CBK263914],89
19,Cc1c(NC(=O)CSc2nnc3c4ccccc4n(C(C)C)c3n2)c(=O)n(-c2ccccc2)n1C [CBK263916],105

# Same assay, conditions: human, hela cells, % viability, bulk resorufin, single well
row,Compound,"viability at 28.5 h, 10 µM [%]"
1,O=C1NC(=O)N(c2ccc(F)cc2)C(=O)/C1=C/c1ccccc1OCc1ccc([N+](=O)[O-])cc1 [CBK263846],93.5
2,CN1C(=O)C(=Cc2ccc(-c3cccc([N+](=O)[O-])c3)o2)C(=O)N(C)C1=S [CBK263903],95.1
